According to patent US20080233202A1, “Fungicidal Compositions” (priority 2004, published 2008):

Experiments:
[1] = tested on: Squash (Cucurbita maxima) cv ‘Delica’; test: Trial 3 leaf health rating and phyto-toxicity; type: in vivo; parameters: key: A: Perfect condition - no abiotic or biotic blemishes.; B: Small blemishes e.g. chlorotic patches, rubbing, insect damage; C: Severe/advanced chlorosis, necrosis or leaf distortion; D: Leaf dead
Description: Qualitative assessments of leaf health/condition were made at the same time as disease severity assessments, using the arbitrary scale described below.
Leaf health ratings were assessed using the criteria described in Table 4. Each value presented in Table 12 is a median value rather than an arithmetic mean.

[2] = tested on: Botrytis cinerea, Cladosporium cladosporiodes, and Monilinia fructicola spores; test: Spore germination inhibition, overall rating over the three fungi; type: cell-based; details: sum of all the germination scores; maximum 12 (greatest inhibition), minimum 0
Description: (§1) The effect of selected treatments on the germination of three other important horticultural fungi, Botrytis cinerea (causal agent of grey mould on grapes, kiwifruit, tomatoes, strawberries, etc), Monilinia fructicola (causal agent of brown rot on stonefruit), and Cladosporium cladosporiodes (one of the fungi that can cause sooty mould) were also assessed using the 96-multiwell assay of Wilson et al (10).
The Overall Rating is the sum of all the germination scores for each treatment (maximum possible value: 12 (greatest inhibition); minimum: 0 (no inhibition)).

[3] = tested on: cucurbit PM pathogen Sphaerotheca fuliginea; test: Trial 3 main treatments, PM disease severity on ‘Delica’ squash leaves; type: in vivo
Description: Squash (Cucurbita maxima) cv ‘Delica’ were raised and the first true leaf on each plant was artificially inoculated as in Trial 1.
Treatment applications were normally at 7-day intervals (although 14 and 21 day intervals were also used in Trial 3) and involved spraying all leaves to run-off (approximately 5 ml per leaf) using hand-held mister-bottles. The first application commenced 3-4 days after artificial inoculation (except for elicitor treatments in Trial 3), when the non-inoculated leaves on plants were still largely disease-free, and plants had up to 8 true leaves (i.e. were 5-6 weeks old).
Disease severity on true leaves 1-8 was rated weekly or fortnightly as discussed above.
Data were analysed as a repeated measures design (RMD) to determine the treatment effect on disease severity over time. Treatment differences at final disease assessment were also assessed as a randomised block design (RBD), by analysis of variance (ANOVA), with means separation by Fisher's Least Significant Difference (LSD) (P<0.05), using SAS software, version 8.01 TS (SAS Institute, Cary, N.C.).
Eight replicate squash plants per treatment (1 replicate per block) were assessed.
The first true leaf of each plant was artificially inoculated with PM, while all other leaves on the plant were allowed to infect naturally. Elicitors (treatments 13-15) were first applied 5 days before artificial inoculation, to allow time for induction of host defences prior to advent of the PM fungus, and every three weeks thereafter. […] All other treatments were first applied 3 days after artificial inoculation and at weekly (treatments 1-4, 7-8, 10-12, 16-20), fortnightly (treatment 5), or 3 weekly intervals (treatments 6 and 9) thereafter.
Treatment effect over time at 0, 2, 4, 6 and 7 weeks was assessed.

[4] = tested on: Cladosporium cladosporiodes spores; test: Spore germination inhibition, 96-multiwell assay; type: cell-based; parameters: key: ****: No germination (score 4); ***: Slight germination (3); **: Moderate germination (2); *: Germination, less than control (1); —: No activity = germination same as the control (score 0); details: after 24 hours incubation at 19° C.
Description: as §1

Botrytis cinerea spores = test: Spore germination inhibition, 96-multiwell assay; type: cell-based; parameters: key: ****: No germination (score 4); ***: Slight germination (3); **: Moderate germination (2); *: Germination, less than control (1); —: No activity = germination same as the control (score 0); details: after 24 hours incubation at 19° C.
Description: as §1

[5] = tested on: Monilinia fructicola spores; test: Spore germination inhibition, 96-multiwell assay; type: cell-based; parameters: key: ****: No germination (score 4); ***: Slight germination (3); **: Moderate germination (2); *: Germination, less than control (1); —: No activity = germination same as the control (score 0); details: after 24 hours incubation at 19° C.
Description: as §1

[6] = tested on: cucurbit PM pathogen Sphaerotheca fuliginea; test: Trial 3 additional treatments, PM disease severity on ‘Delica’ squash leaves; type: in vivo; details: non-inoculated leaves (FIG. 7)
From the text: Treatments were first applied 3 days after artificial inoculation of leaf 1, and at weekly intervals thereafter. There were 4 replicates per treatment, with two replicates per table per glasshouse.

| Compound | leaf health rating ([1]; Trial 3 main, non-inoculated leaves after 7 weeks of treatment application, median value) | Overall Rating [2] | course of PM disease over time ([3]; inoculated leaves) | PM Disease Rating ([3]; inoculated leaves, 0 wks, scale 0-6 of Table 1) | PM Disease Rating ([3]; inoculated leaves, 2 wks) | PM Disease Rating ([3]; inoculated leaves, 4 wks) | PM Disease Rating ([3]; inoculated leaves, 6 wks) | PM Disease Rating ([3]; inoculated leaves, 7 wks) | course of natural PM infections over time ([3]; non-inoculated leaves, 0-7 weeks) | PM Disease Rating ([3]; non-inoculated leaves, 0 wks, scale 0-6 of Table 1) | PM Disease Rating ([3]; non-inoculated leaves, 2 wks) | PM Disease Rating ([3]; non-inoculated leaves, 4 wks) | PM Disease Rating ([3]; non-inoculated leaves, 6 wks) | PM Disease Rating ([3]; non-inoculated leaves, 7 wks) | Germination inhibition, Clado. [4] | Germination inhibition, Botrytis (Botrytis cinerea spores) | Germination inhibition, Monilinia [5] | leaf health rating ([1]; Trial 3 additional, non-inoculated leaves, after 7 weeks) | course of PM disease severity over time [6] |
| --- | --- | --- | --- | --- | --- | --- | --- | --- | --- | --- | --- | --- | --- | --- | --- | --- | --- | --- | --- |
| CCCCC/C=C\C/C=C\CCCCCCCC(=O)O [Linol, Linoleic acid] | F (More than 20% of the leaf area is dead) | 0 | disease increased steadily throughout the trial | 2.63 | 5.25 | 5.88 | 6.00 | 6.00 | rapid breakdown in protective activity | 0.63 | 2.77 | 5.56 | 6.00 | 6.00 | — | — | — |  |  |
| Di-glycerine-mono-laurate [DGML] |  | 10 |  |  |  |  |  |  |  |  |  |  |  |  | **** | ** | **** | E | increased significantly over time |
